# Results from article PMC10080078, “Use of phage display biopanning as a tool to design CAR-T cells against glioma stem cells” (Frontiers in Oncology, 2023).
# Several values for one entry are separate records, joined by “and”; a condition that tells them apart may be missing. Equal entries are not always repeated. Where no end group is shown, it is not given here.
# T1: N-cadherin extracellular domain, amino acids 160-724 (Homo sapiens, UniProt P19022)
# T1 construct: Recombinant Human N-Cadherin extracellular domain, amino acids 160-724; purchased R&D Systems 1388NC050
# T1 sequence (P19022 160-724): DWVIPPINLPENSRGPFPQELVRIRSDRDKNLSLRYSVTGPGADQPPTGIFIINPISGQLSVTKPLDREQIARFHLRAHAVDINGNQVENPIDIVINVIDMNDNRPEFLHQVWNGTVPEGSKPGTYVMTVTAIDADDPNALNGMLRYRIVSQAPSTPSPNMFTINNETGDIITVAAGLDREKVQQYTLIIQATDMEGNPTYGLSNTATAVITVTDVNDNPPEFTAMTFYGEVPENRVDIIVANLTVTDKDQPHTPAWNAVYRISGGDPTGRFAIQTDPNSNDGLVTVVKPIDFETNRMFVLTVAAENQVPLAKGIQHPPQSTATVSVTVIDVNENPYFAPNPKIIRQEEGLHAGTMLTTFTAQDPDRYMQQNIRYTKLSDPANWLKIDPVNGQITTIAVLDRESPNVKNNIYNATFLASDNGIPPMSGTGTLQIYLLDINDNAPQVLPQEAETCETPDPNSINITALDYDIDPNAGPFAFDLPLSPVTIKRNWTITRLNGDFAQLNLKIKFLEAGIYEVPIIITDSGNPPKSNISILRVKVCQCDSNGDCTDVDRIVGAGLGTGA
# T2: Recombinant Human N-Cadherin extracellular domain, amino acids 160-724 (human, UniProt P19022 160-724)
# T2 construct: N-cadherin (CDH2), human, extracellular domain, amino acids 160-724; also called recombinant N-cadherin; recombinant extracellular N-cadherin protein; source: bought: R&D Systems
# T2 sequence (looked up): T1 sequence (P19022 160-724)
# B1: EV peptide as used in surface plasmon resonance (peptide)
# peptide: AWEFYFPGGGGSGGGGSGGGGSSSQPFWS
# notes: dual peptide EV; the SPR methods say only 'EV peptide'; source: synthetic peptide
# B2: biotinylated dual peptide EV (EV-b) (peptide)
# peptide: AWEFYFPGGGGSGGGGSGGGGSSSQPFWS
# modifications: also: biotin conjugated, position not given here
# notes: 29 amino acids; also called EV-biotinylated peptide; source: synthetic peptide (LifeTein)
# Assays:
# [1] = system: GSCs; conditions: ref ([22], [23]), cited from earlier work; for targeting of GSCs in vitro: previously demonstrated
# Experimental: We have previously isolated glioblastoma stem cell targeting peptides through a combination of in vitro and in vivo biopanning strategies ([22], [23]). In vitro biopanning was performed by screening a random 7 amino acid phage peptide library against differentiated stem cells and glioblastoma stem cells grown in culture to isolate GSC-specific targeting peptides ( Figure 1A ). Two types of in vivo biopanning were performed, one against mice with intracranial GBM xenografts ( Figure 1B ) and one with subcutaneous flank xenografts ( Figure 1C ). Two peptides were selected for use in subsequent e ... || Figure 1 Peptide selection. Schematic representation of phage display strategies used to isolate the GSC-targeting peptides E (AWEFYFP) and V (SSQPFWS). […] Authors’ elaboration based on prior data from ([22], [23]).
# [2] = system: intracranial GBM xenografts; conditions: ref ([22], [23]); cited from earlier work
# Excerpt: (§1) Figure 1 Peptide selection. Schematic representation of phage display strategies used to isolate the GSC-targeting peptides E (AWEFYFP) and V (SSQPFWS). […] Authors’ elaboration based on prior data from ([22], [23]).
# [3] = system: N-cadherin; conditions: by itself; ref manuscript under review; cited from earlier work
# Excerpt: Our study has illustrated the utility and feasibility of designing novel antigen-binding domains for CAR-T cells by using two short peptides of just seven amino acids each to induce functional recognition of GSCs.
# [4] = molecular target: T1, N-cadherin extracellular domain, amino acids 160-724; experiment: Surface plasmon resonance, single cycle kinetics (Biacore T200); format: binding
# Experimental: The direct binding measurements between N-cadherin and EV peptide by surface plasmon resonance was performed by immobilizing N-cadherin protein (Recombinant Human N-Cadherin extracellular domain, amino acids 160-724, 1388NC050, R&D Systems, Minneapolis, MN) to a CM5 sensor chip surface docked in Biacore T200 (Cytiva, Marlborough, MA) at 25°C using an amine-coupling method. Prior to immobilization, the chip was primed and equilibrated with a running buffer containing 20 mM HEPES, pH 7.4, 1 mM TCEP, 2 mM CaCl2 and 150 mM NaCl at a flow rate of 10 µL/min. The carboxymethyl surface of the CM5 chip was manually activated for 7 minutes using a 1:1 ratio of 0.4 M 1-ethyl-3-(3-[…]) carbodiimide hydrochloride (EDC) and 0.1 M N-hydroxysuccinimide (NHS) to achieve a density of about 10,000 RU per flow cell. N-cadherin protein stock (1.12 µM) was diluted to 100 nM in 10 mM sodium acetate, pH 4.5, and manually injected over the surface at the same flow rate. […]
# For kinetic titration experiments, the same running buffer was used except with the inclusion of 5% DMSO. […] Sensorgrams were solvent corrected, buffer referenced, and the on-rate, off-rate, and equilibrium binding constants were calculated from the sensorgrams by global fitting of a 1:1 binding model, using analysis software (version 3.0) provided with Biacore T200 instrument (Cytiva).
# [5] = system: N-cadherin; experiment: Immunoblot of peptide pull-down; format: binding; conditions: biotinylated peptide 40 μg on streptavidin agarose
# Experimental: Cells were lysed using the IP Lysis Buffer Protocol (Pierce, Waltham, MA) as described by the manufacturer. Biotinylated peptides (EV-b and NT-b, 40 μg) were incubated with 100 μL of streptavidin agarose resin at 4°C for 1 hour on a rotator to generate the peptide-coupled streptavidin agarose resin. The protein samples were pre-cleared by incubation of 50 μL of NT-streptavidin agarose resins (4°C on rotator for 1 hour). After centrifugation, the pre-cleared samples were incubated with 150 μL of EV-coupled streptavidin agarose resin at 4°C overnight on rotator. After PBS wash, the resin was pelleted and sent for mass spectrometry analysis (see details in Supplementary Methods ) or eluted with 4x Laemmli Sample Buffer (Bio-Rad, Hercules, CA) containing 1X DTT reducing agent (dithiothreitol, Cell Signaling Technology, Danvers, MA) and boiled for SDS-PAGE. Pulled-down proteins were then separated with a Novex™ WedgeWell™ (ThermoFisher Scientific, Waltham, MA) and transferred to polyvinylidene fluoride (PVDF) membranes (Millipore, Burlington, MA). Membrane-transferred proteins were immunoblotted with an antibody recognizing N-cadherin (1/10000, NBP2-01498, Novus Biologicals, Littleton, CO) ( Supplemental Figure 2 ).
# [6] = system: subcutaneous flank GBM xenografts; conditions: ref ([22], [23]); cited from earlier work
# Excerpt: as §1
# [7] = molecular target: T2, Recombinant Human N-Cadherin …; experiment: SPR; N-cadherin amine-coupled to CM5 chip (about 3500 RU), Biacore T200, 25°C; 20 mM HEPES pH 7.4, 1 mM TCEP, 2 mM CaCl2, 150 mM NaCl, 5% DMSO; single cycle kinetics, peptide 2 to 167 µM; 1:1 binding model; conditions: both partners purified
# [8] = molecular target: T2, Recombinant Human N-Cadherin …; experiment: ELISA; plates coated with 2.5 μg/mL recombinant N-cadherin; biotinylated peptides at different concentrations in PBS-2%-BSA, 1 hour at RT; streptavidin-HRP; conditions: both partners purified
molecule,measurement,setting,value
AWEFYFP [isolated from both the in vitro and intracranial in vivo biopanning],targeting of GSCs in vitro,[1],specificity for targeting GSCs in vitro
same,enrichment in in vitro biopanning,[1],one of the most enriched
same,"enrichment in in vivo biopanning, intracranial",[2],one of the most enriched
same,binding of single peptide E to N-cadherin,[3],positive binding to N-cadherin
AWEFYFPGGGGSGGGGSGGGGSSSQPFWS [EV],kon,"[4]; CM5 chip, 25°C, 20 mM HEPES pH 7.4, 1 mM TCEP, 2 mM CaCl2, 150 mM NaCl, 5% DMSO, EV 2 to 167 µM, 1:1 model, first run, read-out: on-rate (ka)",2620 M⁻¹ s⁻¹
"FAYPEWFGGGGSGGGGSGGGGSPSWSFSQ [NT, reference compound]",N-cadherin antibody signal in peptide pull-down immunoblot,[5],absent
same,SPR response / KD of NT peptide,"[4]; identical condition, NT peptide in SPR is GGGSGGG, could not be fitted for reliable extraction of the KD",did not exhibit significant resonance units
"SSQPFWS [V, isolated from the subcutaneous flank biopanning]",targeting of GSCs in vitro,[1],specificity for targeting GSCs in vitro
same,enrichment in in vivo biopanning on subcutaneous tumors,[6],one of the most enriched
B1,Kd,[7],9.4 µM and 8.45 µM and 7.5 µM
same,koff,[7],0.0196 s⁻¹
B2,binding result,[8],binds
